Tests used:
Assay in all cases: Example B1 herbicidal action, post-emergence, 96-cell seed trays, climatic chamber
Format in all cases: in vivo
[1] = system: Amaranthus retroflexus (AMARE); details: Application post-emergence, 1000 mg/l spray equivalent to 1000 g/ha, evaluated after 9 days
Protocol: (§1) Seeds of a variety of test species were sown in sterilised standard soil in seed trays each having 96 cells. After cultivation for 8 to 9 days cultivation (post-emergence) under controlled conditions in a climatic chamber (cultivation at 23/17° C., day/night; 13 hours light; 50-60% humidity), the plants were treated with an aqueous spray solution of 1000 mg/l of the active ingredient dissolved in 10% DMSO (dimethyl sulfoxide, CAS RN 67-68-5) as a solvent, equivalent to 1000 g/ha. The plants were grown in the climatic chamber after application at (24/19° C., day/night; 13 hours light; 50-60% humidity) and watered twice daily. After 9 days until the test was evaluated (100=total damage to plant, 0=no damage to plant)

Solanum nigrum (SOLNI) = details: Application post-emergence, 1000 mg/l spray equivalent to 1000 g/ha, evaluated after 9 days (100=total damage to plant, 0=no damage to plant)
Protocol: as §1

Stellaria media (STEME) = details: Application post-emergence, 1000 mg/l spray equivalent to 1000 g/ha, evaluated after 9 days (100=total damage to plant, 0=no damage to plant)
Protocol: as §1

[2] = system: Nasturtium officinale (NAAOF); design: scale not given here; details: Application post-emergence, 1000 mg/l spray equivalent to 1000 g/ha, evaluated after 9 days (100=total damage to plant, 0=no damage to plant)
Protocol: as §1

Compound | damage to plant, Amaranthus retroflexus (AMARE) [1] | damage to plant, Solanum nigrum (SOLNI) (Solanum nigrum (SOLNI)) | damage to plant, Stellaria media (STEME) (Stellaria media (STEME)) | damage to plant, Nasturtium officinale (NAAOF) [2]
O=c1[nH]c2nccnc2c(O)c1-c1ccc(Cl)cc1Cl [Compound A1] | 0 | 0 | 7 | 5
O=c1[nH]c2nccnc2c(O)c1-c1ccccc1Cl [Compound A2] | 6 | 0 | 2 | 2
O=c1[nH]c2nccnc2c(O)c1-c1cc(Cl)ccc1Cl [Compound A3] | 8 | 0 | 3 | 4
O=c1[nH]c2nccnc2c(O)c1-c1cccc(Cl)c1Cl [Compound A4] | 5 | 2 | 1 | 2
O=c1[nH]c2nccnc2c(O)c1-c1c(Cl)cccc1Cl [Compound A5] | 3 | 3 | 3 | 6
Cc1ccccc1-c1c(O)c2nccnc2[nH]c1=O [Compound A6] | 0 | 5 | 0 | 0
O=c1[nH]c2nccnc2c(O)c1-c1ccccc1C(F)(F)F [Compound A8] | 5 | 0 | 2 | 7
COc1c(Cl)cc(Cl)cc1-c1c(O)c2nccnc2[nH]c1=O [Compound A9] | 7 | 4 | 8 | 3
O=c1[nH]c2nccnc2c(O)c1-c1ccc(F)cc1Cl [Compound A10] | 9 | 0 | 2 | 2
O=c1[nH]c2nccnc2c(O)c1-c1ccccc1OC(F)(F)F [Compound A13] | 5 | 0 | 3 | 0
O=c1[nH]c2nccnc2c(O)c1-c1c(Cl)cc(C(F)(F)F)cc1Cl [Compound A14] | 6 | 0 | 7 | 7
O=c1[nH]c2nccnc2c(O)c1-c1ccccc1F [Compound A15] | 0 | 0 | 0 | 2
O=c1[nH]c2nccnc2c(O)c1-c1ccc(F)cc1C(F)(F)F [Compound A17] | 8 | 5 | 5 | 7
O=c1[nH]c2nccnc2c(O)c1-c1ccc(F)cc1Br [Compound A18] | 6 | 6 | 4 | 9
O=c1[nH]c2nccnc2c(O)c1-c1cc(Cl)ccc1C(F)(F)F [Compound A19] | 6 | 7 | 5 | 5
COc1ccc(-c2c(O)c3nccnc3[nH]c2=O)c(OC)c1 [Compound A20] | – | – | 0 | 2
O=c1[nH]c2nccnc2c(O)c1-c1c(Cl)ccc(Cl)c1Cl [Compound A21] | 7 | 5 | 3 | 6
O=c1[nH]c2ncc(Br)nc2c(O)c1-c1c(Cl)cccc1Cl [Compound A26] | 0 | 0 | 2 | 0
O=c1[nH]c2ncc(Cl)nc2c(O)c1-c1c(Cl)cccc1Cl [Compound A27] | 0 | 0 | 2 | 0
O=c1[nH]c2nccnc2c(O)c1-c1cc(Cl)cc(Cl)c1Cl [Compound A28] | 2 | 0 | 2 | 3
O=c1[nH]c2nccnc2c(O)c1-c1ccc2ccccc2c1 [Compound A29] | 2 | 2 | 3 | 0
Cc1cc(C)c(-c2c(O)c3nccnc3[nH]c2=O)c(C)c1 [Compound A30] | 7 | 0 | 4 | 3
O=c1[nH]c2nccnc2c(O)c1-c1c(Cl)cccc1C(F)(F)F [Compound A31] | 5 | 0 | 3 | 3
O=c1[nH]c2nccnc2c(O)c1-c1cccc(C(F)(F)F)c1Cl [Compound A32] | 0 | 2 | 0 | 0
Cc1ccc(Cl)c(-c2c(O)c3nccnc3[nH]c2=O)c1F [Compound A33] | 4 | 3 | 3 | 2
O=c1[nH]c2nccnc2c(O)c1-c1cc(C(F)(F)F)ccc1Cl [Compound A34] | 6 | 2 | 4 | 4
Cc1ccc(F)c(-c2c(O)c3nccnc3[nH]c2=O)c1Cl [Compound A35] | 4 | 4 | 0 | 3
CC(=O)Oc1c(-c2ccc(Cl)cc2Cl)c(=O)[nH]c2nccnc12 [Compound B1] | 8 | 0 | 3 | 0
CC(C)C(=O)Oc1c(-c2ccc(F)cc2Cl)c(=O)[nH]c2nccnc12 [Compound B2] | 5 | 0 | 0 | 0
CCn1c(=O)c(-c2ccccc2OC(F)(F)F)c(O)c2nccnc21 [Compound D5] | 3 | – | 6 | 7

Reference: patent publication US8133847B2, “Pyrido[2,3-B]pyrazine derivatives useful as herbicidal compounds” (Syngenta Limited, priority 2006, dated 2012)
